We go through three molecules from US8487098B2, “Synergistic combination of flumetsulam or diclosulam with isothiazolones” (Dow Global Technologies LLC, priority 2010, dated 2013).

What all share (type): cell-based
Common to all, as to conditions: 4 weeks; for % inhibition: at the total conc given; for Total conc, ppm: minimum inhibitory concentration in paint

Assay [1] concerns Gloeocapsa sp. and Oscillatoria sp. (Gs + Os). Put plainly: Algal efficacy testing, modified ASTM 5589, paint film. How it is done: (§1) A single or blend of biocides was post added into white acrylic latex paint free of biocides to give a maximum total active ingredient/s concentration tested. This paint was then diluted with a biocide free acrylic latex paint to give targeted concentrations for the testing. Depending on the type of biocide blends tested, the total biocides concentrations varies from 200 to 5000 ppm. After biocides addition or dilution, each sample was hand mixed for at least a minute until uniformity is achieved. Each of the paint samples as well as a control sample (containing no biocide) were used to prepare films on black plastic-vinyl chloride/acetate copolymer panels (LENETA, Mahwah, N.J.) using a 3 mil (0.0762 mm) bird bar applicator. The panels were thoroughly dried for at least 2 days avoiding direct exposure to sunlight. Square discs (0.5 inch; 1.27 cm^2) were cut out from each panel and were used as the substrate for fungal and algal efficacy tests. This sample size allowed for an agar border when the sample disc was placed into the well of the test plate. Each sample was tested in duplicate
(§2) The appropriate media (BOLD'S 3N for Chlorophytes, BG-11 for Cyanobacteria, and PDA for fungi) were used to support microbial growth. The test plates were maintained at room temp (25° C.-26° C.), in a cycled light-dark environment, for four weeks for algae. Plates for fungal challenge tests were maintained at 30 C for four weeks. At the end of the incubation period the samples were scored for percent area covered by visible microbial growth.
(§3) Algal Efficacy Testing—Modified ASTM 5589
(§4) ASTM 5589 is a standard accelerated test method for determining resistance of various coatings (including paints) to algal defacement. To accommodate for high-throughput screening, this method was scaled down from petri plates to 6-well plates. A single coupon was placed with a pair of sterile forceps at the center of the agar plug (on top) with the painted surface facing upwards. Algal inoculums were prepared by mixing equal concentrations (1×10^6 cfu/ml) and equal volumes (depending on number of samples to be inoculated) of like growing organisms.
(§5) In Flumetsulam+various IT synergy study, three pool of mixed algae were prepared as the test inoculum, Gloeocapsa sp. and Oscillatoria sp. a mix of cyanobacteria grown on BG-11 media; Chlorella sp., Chlorella kessleri, and Nostoc commune are unicellular chlorphytes that were mixed and grown on Bold media; Trentepohlia aurea, Tretepohlia odorata, and Calotrix parientina are filamentous algae that were mixed and grown on Bold media.
(§6) In Diclosulam+various IT synergy study, only two pools of mixed algae were prepared; Gloeocapsa sp. and Oscillatoria sp. grown on BG-11 media and Chlorella sp., Chlorella kessleri, Nostoc commune, Trentepohlia aurea, Tretepohlia odorata, and Calotrix parientina grown on Bold media
(§7) Each well that contains a tested coupon was inoculated with 400 μl of organism mixture (1×10^6 cfu/ml) making sure that the whole surface (paint film as well as the agar surrounding it) was evenly covered. The plates were incubated at room temp (25° C.-26° C.) with cyclic exposure to light (OTT-Lite model #OTL4012P, 40 Watt, 26 KLumen) and dark phases, for a period of four weeks. The total area covered was evaluated at the end of each week according to percent area covered in 5% increments.
(§8) Synergy Index Calculation
(§9) The SI is calculated based on F. C. Kull et.
(§10) Qa=the concentration of Biocide A in the blend
(§11) QA=The concentration of Biocide A as the only biocide
(§12) Qb=The concentration of Biocide B in the blend
(§13) QB=The concentration of Biocide B as the only biocide
(§14) SI value of <1 in the formula indicates a synergism of the blended biocides exists.
(§15) NE=no end point at the concentration tested that will meet the percent inhibition criteria set in each SI calculation

Assay [2] relates to Aa + Tv + An + Pf + Ap + Ch. Put plainly: Fungal efficacy testing, modified ASTM 5590, paint film, single pool of all fungi. How it is done: as §1, §2
(§16) Fungal Efficacy Testing—Modified ASTM 5590
(§17) ASTM 5590 is a standard accelerated test method for determining resistance of various coatings (including paints) to fungal defacement. To accommodate for high-throughput screening, this method was scaled down from petri plates to 6-well plates. To set up the test, an agar plug was placed at the bottom of each well of the sterile 6-well plate. A single coupon was placed with a pair of sterile forceps at the center of the agar plug (on top) with the painted surface facing upwards. Fungal inoculums were prepared by mixing equal concentrations (1×10^6 cfu/ml) and equal volumes (depending on number of samples to be tested) of like growing organisms. For Flumetsulam+various IT synergy study, three pools of mixed fungi were prepared as the test inoculum. Cladosporium herbarum was mixed with Aureobasidium pullulans; Aspergillus niger was mixed with Penicillium funiculosum and Alternaria alternata was mixed with Trichoderma viride. For Diclosulam+various IT synergy study, all above fungi were mixed as a single pool. Each well was inoculated with 400 μl of organism mixture (1×10^6 cfu/ml) making sure that the whole surface (paint film as well as the agar surrounding it) was evenly covered. The plates were incubated at 30° C. in presence of moisture, for a period of four weeks. The total percent area covered was evaluated and recorded at the end of each week after the 2nd week and recorded in increments of 5%.
as §8, §9, §10, §11, §12, §13, §14, §15

For assay [3], the system named is Cp + To + Ta + Cs + Ck + Nc. Put plainly: Algal efficacy testing, modified ASTM 5589, paint film, pool grown on Bold media. How it is done:
as §1, §2, §3, §4, §6, §7, §8, §9, §10, §11, §12, §13, §14, §15

For assay [4], the system named is Alternaria alternata mixed with Trichoderma viride (AaTv). Put plainly: Fungal efficacy testing, modified ASTM 5590, paint film. As to the method: as §1, §2, §16, §17, §8, §9, §10, §11, §12, §13, §14, §15
In assay [5] the test system is Aspergillus niger mixed with Penicillium funiculosum (AnPf). The assay is described as above. How it is done:
as §1, §2, §16, §17, §8, §9, §10, §11, §12, §13, §14, §15

In assay [6] the test system is Cladosporium herbarum mixed with Aureobasidium pullulans (ApCh). The description is as above. As to the method: as §1, §2, §16, §17, §8, §9, §10, §11, §12, §13, §14, §15
Assay [7] has as its system Chlorella sp., Chlorella kessleri, and Nostoc commune (Cs + Ck + Nc). Briefly: Algal efficacy testing, modified ASTM 5589, paint film. How it is done: as §1, §2, §3, §4, §5, §7, §8, §9, §10, §11, §12, §13, §14, §15
In assay [8] the test system is Trentepohlia aurea, Tretepohlia odorata, and Calotrix parientina (Cp + To + Ta). Described as above. How it is done: as §1, §2, §3, §4, §5, §7, §8, §9, §10, §11, §12, §13, §14, §15
Where [9] appears, read: Synergy study of Diclosulam and DCOIT.
Setting [10] is: Synergy study of Diclosulam+OIT.
[11] abbreviates: Flumetsulam:BBIT synergy study, NE=no end point.
[12] abbreviates: Flumetsulam:DCOIT synergy study.

Usually % inhibition stands for the relative decrease from the control value, in per cent. As for `CCOc1nc(F)cc2nc(S(=O)(=O)Nc3c(Cl)cccc3Cl)nn12` [Diclosulam, N-(2,6-dichlorophenyl)-5-ethoxy-7-fluoro[1,2,4]triazolo[1,5-c]pyrimidine-2-sulfonamide], the “% inhibition” value came to 100% in assay [1] (setting [9]); 100% in assay [1] (setting [10]); 40% in assay [2] (setting [9]); 0% in assay [2] (setting [10]); 100% in assay [3] (setting [9]); 100% in assay [3] (setting [10]). The “Total conc, ppm” value in assay [1] (setting [9]) turned out to be 437.5 ppm; in assay [1] (setting [10]), 437.5 ppm; in assay [2] (setting [9]), 3500 ppm; in assay [2] (setting [10]), 3500 ppm; in assay [3] (setting [9]) it was 437.5 ppm; in assay [3] (setting [10]), 437.5 ppm.

Consider `Cc1ccn2nc(S(=O)(=O)Nc3c(F)cccc3F)nc2n1` [Flumetsulam, N-(2,6-difluorophenyl)-5-methyl[1,2,4]triazolo[1,5-a]pyrimidine-2-sulfonamide], for which the “% inhibition” value in assay [4] (Flumetsulam:BBIT synergy study) stood at 0%; in assay [4] (setting [12]), 0%; in assay [4] (Flumetsulam:OIT synergy study), 0%; in assay [5] (Flumetsulam:BBIT synergy study), 0%; in assay [5] (setting [12]), 0%; in assay [5] (Flumetsulam:OIT synergy study) it was 65%. For the same molecule, the “% inhibition” value in assay [6] (Flumetsulam:BBIT synergy study) amounted to 0%; in assay [6] (setting [12]) it was 90%; in assay [6] (Flumetsulam:OIT synergy study) it was 0%; in assay [7] (Flumetsulam:BBIT synergy study), 0%; in assay [7] (setting [12]), 100%; in assay [7] (Flumetsulam:OIT synergy study), 65%. The “% inhibition” value in assay [8] (Flumetsulam:BBIT synergy study) stood at 0%; in assay [8] (setting [12]) it was 95%; in assay [8] (Flumetsulam:OIT synergy study) it was 60%; in assay [1] (Flumetsulam:BBIT synergy study) it was 0%; in assay [1] (setting [12]), 100%; in assay [1] (Flumetsulam:OIT synergy study), 90%. Moreover, the “Total conc, ppm” value in assay [4] (setting [11]), in assay [4] (setting [12]), in assay [4] (Flumetsulam:OIT synergy study), in assay [5] (Flumetsulam:BBIT synergy study), in assay [5] (setting [12]) and in assay [5] (Flumetsulam:OIT synergy study) was 3500 ppm each time. Moreover, the “Total conc, ppm” value in assay [6] (setting [11]) worked out at 3500 ppm; in assay [6] (setting [12]), 3500 ppm; in assay [6] (Flumetsulam:OIT synergy study), 3500 ppm; in assay [7] (Flumetsulam:BBIT synergy study), 3500 ppm; in assay [7] (setting [12]), 1750 ppm; in assay [7] (Flumetsulam:OIT synergy study), 2625 ppm. Moreover, the “Total conc, ppm” value is recorded as 3500 ppm in assay [8] (setting [11]); 437.5 ppm in assay [8] (setting [12]); 437.5 ppm in assay [8] (Flumetsulam:OIT synergy study); 3500 ppm in assay [1] (Flumetsulam:BBIT synergy study); 2625 ppm in assay [1] (setting [12]); 437.5 ppm in assay [1] (Flumetsulam:OIT synergy study).

In the case of `CCCCCCCCn1sccc1=O` [OIT, 2-n-octyl-4-isothiazolin-3-one], the “% inhibition” value in assay [4] (Flumetsulam:OIT synergy study) stood at 100%; in assay [5] (Flumetsulam:OIT synergy study), 100%; in assay [6] (Flumetsulam:OIT synergy study), 80%; in assay [7] (Flumetsulam:OIT synergy study), 100%; in assay [8] (Flumetsulam:OIT synergy study) it was 100%; in assay [1] (Flumetsulam:OIT synergy study), 100%. Moreover, the “% inhibition” value in assay [1] (setting [10]), in assay [2] (setting [10]) and in assay [3] (setting [10]) was 100% in each case. In addition, the “Total conc, ppm” value in assay [4] (Flumetsulam:OIT synergy study) is recorded as 900 ppm; in assay [5] (Flumetsulam:OIT synergy study), 450 ppm; in assay [6] (Flumetsulam:OIT synergy study), 900 ppm; in assay [7] (Flumetsulam:OIT synergy study), 450 ppm; in assay [8] (Flumetsulam:OIT synergy study) it was 450 ppm; in assay [1] (Flumetsulam:OIT synergy study), 450 ppm. In addition, the “Total conc, ppm” value in assay [1] (setting [10]) was determined as 900 ppm; in assay [2] (setting [10]), 450 ppm; in assay [3] (setting [10]) it was 900 ppm.
